Where a SMILES comes first, the peptide text is derived from it. Bridges are numbered along the chain shown (N, C = ends). [ ]: non-standard residue; d: D form. hArg = N=C(N)NCCCC[C@H](N)C(=O)O; Mpa = O=C(O)CCS
Legend:
M21 melanoma cells = experiment: Cell adhesion assay: 35S-methionine labelled cells on vitronectin-coated plates; type: cell-based; details: for effect on cell adhesion / attachment to vitronectin (in words): M21 melanoma cells, vitronectin-coated plates
Method: M21 melanoma cells were labelled with ^35S-methionine, and then added to vitronectin-coated plates in the presence of the indicated concentrations of purified snake venom peptides. Cell attachment was measured by solubilizing the cells remaining after an incubation and wash, as previously describe.

[1] = target: ADP-induced human platelet aggregation (Homo sapiens, UniProt P05106+P08514); experiment: Standard platelet aggregation inhibition assay; type: cell-based
Source text: In addition to the above plate assays, other assays for platelet aggregation inhibition activity and related activities are also available, as set forth above. In summary, a list of commonly employed assays is as follows: • 1. The plate assays utilizing specific receptors described in the previous paragraphs; • 2. Standard assays directly applied to platelet aggregation, such as those described by Gann, Z.-R., et al., J Biol Chem (1988) 263:19827-19832; Huang, T.F., et al., J Biol Chem (1987) 262:16157-16163; Biochemistry (1989) 28:661-666, cited above and incorporated herein by reference; • 3. An in vivo thrombosis model in dogs as described by Folts, J.D., et al., Circulation (1976) 54:365; and • 4. Effect on cell adhesion using S35 methionine-labeled cells as described hereinbelow in Example 10.
IC50 values for the analogs of the invention in this assay are as follows:
A solution was formed in 1.0 M citric acid of greater than 95% pure cyclic form of Mpr-L-homoarginine-Gly-Asp-Trp-Pro-Cys-NH2 • acetate polypeptide (I) at a concentration of up to 200 mg per ml of solution. This solution was diluted to the desired final peptide concentration as follows: This solution was first diluted to about 85% of the final volume with water. The pH of the solution was adjusted to 5.0-5.5 using sodium hydroxide. The solution was then diluted to the final volume with water. Compositions having a concentration of (I) of 0.5 mg/ml and 5.0 mg/ml were formulated and evaluated for stability by HPLC, UV and visual inspection as described in Example 1. The compositions were also evaluated for platelet aggregation inhibiting activity using the assay described above.

vitronectin receptor = vitronectin receptor (Homo sapiens, UniProt P05106+P06756); experiment: Plate assay: inhibition of vitronectin binding to vitronectin receptor; details: at concentrations up to 1 uM
Source text: The PAI assay systems further include characterization of the PAI specificity by binding inhibition assays identical to that above but substituting other adhesive proteins for Fg and other receptors for GP IIb-IIIa. In particular, inhibition of the binding of vitronectin to the vitronectin receptor; fibronectin to the fibronectin receptor; fibronectin to GP IIb-IIIa and fibrinogen and/or vWF to GP IIb-IIIa can be assessed. The adhesive protein and receptors for these assays are available in the art.

GP IIb-IIIa = target: T1, GP IIb-IIIa (Homo sapiens, UniProt P05106+P08514); experiment: Plate assay: inhibition of fibrinogen binding to immobilized GP IIb-IIIa; details: for differential: inhibiting the binding of fibrinogen to GP IIb-IIIa as compared to vitronectin to vitronectin receptor (in words): plate assays
T1 construct: from tissue
Method: In the assay, GP IIb-IIIa, prepared in purified form, for example as described by Fitzgerald, L.A., et al., Anal Biochem (1985) 151:169-177, incorporated herein by reference, is coated onto a solid support such as beads, test tubes, or microtiter plates. The coated support is then contacted with fibrinogen and with the test material and incubated for a sufficient time to permit maximal binding of fibrinogen to the immobilized GP IIb-IIIa. Fibrinogen is typically provided at a concentration of about 5-50 nM and the test material can, if desired, be added at a series of dilutions. Typical incubations are 2-4 hr at 35°C, the time and temperature being interdependent.
After incubation, the solution containing the fibrinogen and test material is removed and the level of binding of fibrinogen measured by quantitating bound fibrinogen to GP IIb-IIIa. Any suitable means of detection can be used, but it is convenient to employ labeled fibrinogen, for example using radioactive, fluorescent or biotinylated labels. Such methods are well known and need not be elaborated here.
Assessment of the results is aided by employing a control sample, usually identical to the test sample except that the test substance is absent. In this case, percent inhibition may be calculated using the basis, so that % inhibition =(control - test)/(control)x 100. [formula] Other measures of inhibition effectiveness, such as IC50, can also be used.

[2] = Storage stability of polypeptide in citrate buffer solution, analysed by reversed phase HPLC; type: physicochemical; parameters: key: % of main peak of original polypeptide found by HPLC; details: 25 mM citrate buffer pH 5.25, about 1 mg/mL
[3] = as above; type: physicochemical
Method: One ml aliquots of the above solution of polypeptide in citrate buffer were sealed in borosilicate glass ampules under sterile conditions and stored at a constant temperature. Test sample ampules from each pH and temperature condition 4°C, 50°C and 70°C were removed periodically, visually assessed and then analyzed separately by HPLC using a mobile phase comprising acetonitrile (MeCN) and 0.1% trifluoroacetic (TFA) in water. This stability was evaluated by conventional assay methods applicable to purity, weight or size of polypeptides. These included not only visual evaluations, such as discoloration, transparency and precipitation, and included assays normally applied to separate polypeptides from each other and from other materials by reversed phase high performance liquid chromatography (HPLC).
Results of these experiments are set forth in Table 1 in which the stability is expressed in terms of the percentage of main peak of original polypeptide found in the sample analyzed by HPLC. The composition was also found to be normal on visual evaluation. […]

T1 sequence (P08514 32-887 limits assumed): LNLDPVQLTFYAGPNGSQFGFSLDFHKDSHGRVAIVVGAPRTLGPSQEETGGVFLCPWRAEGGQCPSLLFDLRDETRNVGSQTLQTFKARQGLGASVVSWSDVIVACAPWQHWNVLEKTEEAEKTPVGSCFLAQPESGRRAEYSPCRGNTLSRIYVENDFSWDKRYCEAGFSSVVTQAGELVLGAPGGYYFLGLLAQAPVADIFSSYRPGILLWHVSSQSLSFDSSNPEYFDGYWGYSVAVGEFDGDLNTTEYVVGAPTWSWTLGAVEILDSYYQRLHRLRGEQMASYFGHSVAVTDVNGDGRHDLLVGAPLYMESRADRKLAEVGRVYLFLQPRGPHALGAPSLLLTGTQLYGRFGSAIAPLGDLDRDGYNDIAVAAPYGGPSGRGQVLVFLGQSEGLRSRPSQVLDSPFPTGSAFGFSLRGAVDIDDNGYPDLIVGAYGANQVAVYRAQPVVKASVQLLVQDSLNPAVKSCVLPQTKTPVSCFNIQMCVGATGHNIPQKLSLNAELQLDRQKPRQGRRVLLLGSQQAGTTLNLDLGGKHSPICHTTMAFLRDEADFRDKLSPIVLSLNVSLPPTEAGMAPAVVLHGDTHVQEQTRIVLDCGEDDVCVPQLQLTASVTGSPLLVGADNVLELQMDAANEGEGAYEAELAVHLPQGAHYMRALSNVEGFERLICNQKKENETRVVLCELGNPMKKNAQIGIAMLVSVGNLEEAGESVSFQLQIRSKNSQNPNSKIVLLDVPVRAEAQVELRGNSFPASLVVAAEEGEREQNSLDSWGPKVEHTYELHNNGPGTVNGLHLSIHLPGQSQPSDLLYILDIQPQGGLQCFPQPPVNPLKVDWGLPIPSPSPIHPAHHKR
T1 sequence (P08514 891-1039 limits assumed): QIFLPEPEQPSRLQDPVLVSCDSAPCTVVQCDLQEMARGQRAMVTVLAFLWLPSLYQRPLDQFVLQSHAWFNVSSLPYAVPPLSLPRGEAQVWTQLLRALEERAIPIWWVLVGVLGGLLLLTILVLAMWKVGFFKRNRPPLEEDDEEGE
T1 sequence (P05106 27-788): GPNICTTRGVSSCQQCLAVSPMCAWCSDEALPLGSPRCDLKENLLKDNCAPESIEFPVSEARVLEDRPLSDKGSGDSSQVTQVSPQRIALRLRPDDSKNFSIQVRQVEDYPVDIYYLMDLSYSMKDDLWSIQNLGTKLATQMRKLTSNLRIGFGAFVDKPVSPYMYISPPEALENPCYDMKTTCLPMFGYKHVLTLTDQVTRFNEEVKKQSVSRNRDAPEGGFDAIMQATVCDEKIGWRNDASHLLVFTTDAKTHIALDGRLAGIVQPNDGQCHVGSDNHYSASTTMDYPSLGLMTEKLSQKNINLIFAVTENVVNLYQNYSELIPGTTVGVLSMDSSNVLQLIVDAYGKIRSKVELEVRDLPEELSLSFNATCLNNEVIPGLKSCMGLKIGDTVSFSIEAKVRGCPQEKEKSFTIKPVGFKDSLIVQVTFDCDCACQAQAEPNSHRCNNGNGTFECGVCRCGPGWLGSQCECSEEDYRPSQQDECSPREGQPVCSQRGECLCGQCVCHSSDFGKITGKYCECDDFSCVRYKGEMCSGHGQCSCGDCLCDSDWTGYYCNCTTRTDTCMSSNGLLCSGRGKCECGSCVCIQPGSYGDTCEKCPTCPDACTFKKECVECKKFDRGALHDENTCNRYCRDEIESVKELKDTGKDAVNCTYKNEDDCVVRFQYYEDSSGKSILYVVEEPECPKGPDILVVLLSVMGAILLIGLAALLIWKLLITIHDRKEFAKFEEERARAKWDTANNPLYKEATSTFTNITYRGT
ADP-induced human platelet aggregation, sequence (P08514 32-1039): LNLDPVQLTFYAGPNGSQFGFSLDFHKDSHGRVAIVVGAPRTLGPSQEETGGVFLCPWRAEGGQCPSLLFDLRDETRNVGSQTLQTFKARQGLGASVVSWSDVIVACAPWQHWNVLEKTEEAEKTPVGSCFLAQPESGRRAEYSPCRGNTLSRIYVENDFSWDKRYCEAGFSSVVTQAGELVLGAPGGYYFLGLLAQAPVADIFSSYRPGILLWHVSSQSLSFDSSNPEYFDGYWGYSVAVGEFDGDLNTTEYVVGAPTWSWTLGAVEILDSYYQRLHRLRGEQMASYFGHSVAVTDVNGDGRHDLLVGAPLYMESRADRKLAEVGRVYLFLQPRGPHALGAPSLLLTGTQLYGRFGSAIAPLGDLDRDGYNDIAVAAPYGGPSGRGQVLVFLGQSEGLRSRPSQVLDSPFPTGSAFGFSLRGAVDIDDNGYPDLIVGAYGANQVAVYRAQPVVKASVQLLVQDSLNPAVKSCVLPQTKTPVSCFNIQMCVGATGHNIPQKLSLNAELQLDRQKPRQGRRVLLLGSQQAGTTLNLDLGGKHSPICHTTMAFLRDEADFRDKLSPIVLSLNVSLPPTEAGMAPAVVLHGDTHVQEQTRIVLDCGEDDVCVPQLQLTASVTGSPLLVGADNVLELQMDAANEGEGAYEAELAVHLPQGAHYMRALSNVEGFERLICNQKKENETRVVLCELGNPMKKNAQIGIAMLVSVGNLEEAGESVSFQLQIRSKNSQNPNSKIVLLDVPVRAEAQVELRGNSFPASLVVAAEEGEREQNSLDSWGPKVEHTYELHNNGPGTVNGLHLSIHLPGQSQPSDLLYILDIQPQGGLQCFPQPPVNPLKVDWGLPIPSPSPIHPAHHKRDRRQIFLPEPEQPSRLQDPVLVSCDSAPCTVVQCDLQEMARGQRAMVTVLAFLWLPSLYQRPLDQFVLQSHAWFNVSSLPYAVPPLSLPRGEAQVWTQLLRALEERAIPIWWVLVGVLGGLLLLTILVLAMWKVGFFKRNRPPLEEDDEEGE
ADP-induced human platelet aggregation, sequence (P05106 27-788): as the sequence (P05106 27-788) above
vitronectin receptor, sequence (P06756 31-889 limits assumed): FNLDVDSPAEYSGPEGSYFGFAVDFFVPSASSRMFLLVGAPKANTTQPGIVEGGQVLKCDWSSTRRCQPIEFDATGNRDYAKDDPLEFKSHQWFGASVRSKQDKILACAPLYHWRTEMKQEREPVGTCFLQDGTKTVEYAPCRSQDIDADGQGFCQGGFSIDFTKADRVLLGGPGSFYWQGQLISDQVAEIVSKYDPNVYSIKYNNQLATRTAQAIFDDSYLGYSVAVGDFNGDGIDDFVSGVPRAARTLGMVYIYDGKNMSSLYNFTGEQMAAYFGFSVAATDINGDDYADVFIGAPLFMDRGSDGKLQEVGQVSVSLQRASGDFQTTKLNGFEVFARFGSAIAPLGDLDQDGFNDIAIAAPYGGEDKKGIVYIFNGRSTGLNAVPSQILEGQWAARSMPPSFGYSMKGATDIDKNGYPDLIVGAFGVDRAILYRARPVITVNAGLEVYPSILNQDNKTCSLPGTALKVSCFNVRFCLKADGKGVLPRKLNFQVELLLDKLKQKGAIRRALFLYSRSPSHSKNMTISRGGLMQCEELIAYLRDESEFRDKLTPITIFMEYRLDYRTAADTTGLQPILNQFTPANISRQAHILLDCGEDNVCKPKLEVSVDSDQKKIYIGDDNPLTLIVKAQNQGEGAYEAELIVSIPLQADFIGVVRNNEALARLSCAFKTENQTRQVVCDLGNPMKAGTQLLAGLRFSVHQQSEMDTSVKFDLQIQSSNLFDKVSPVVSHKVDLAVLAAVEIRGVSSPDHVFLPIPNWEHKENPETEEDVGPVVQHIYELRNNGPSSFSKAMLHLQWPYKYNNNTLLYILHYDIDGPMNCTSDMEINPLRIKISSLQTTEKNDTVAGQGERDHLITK
vitronectin receptor, sequence (P06756 891-1048 limits assumed): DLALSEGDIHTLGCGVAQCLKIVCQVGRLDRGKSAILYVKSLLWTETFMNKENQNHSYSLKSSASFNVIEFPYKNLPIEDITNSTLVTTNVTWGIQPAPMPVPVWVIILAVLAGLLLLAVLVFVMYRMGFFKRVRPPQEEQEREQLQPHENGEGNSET
vitronectin receptor, sequence (P05106 27-788): as the sequence (P05106 27-788) above

C[C@H](NC(=O)[C@@H]1CSSC[C@H](NC(=O)CN)C(=O)NCC(=O)N[C@@H](CCCCN)C(=O)NCC(=O)N[C@@H](CC(=O)O)C(=O)N[C@@H](Cc2c[nH]c3ccccc23)C(=O)N2CCC[C@H]2C(=O)N1)C(N)=O [Analog #3, G-C-G-K-G-D-W-P-C-A-NH2]
effect on M21 cell attachment to vitronectin (in words) (M21 melanoma cells; up to 60 uM): ineffective

NCCCC[C@@H]1NC(=O)CCSSC[C@@H](C(N)=O)NC(=O)[C@@H]2CCCN2C(=O)[C@H](Cc2c[nH]c3ccccc23)NC(=O)[C@H](CC(=O)O)NC(=O)CNC1=O [Analog #19, Mpr-K-G-D-W-P-C-NH2] ([Mpa]KGDWPC-NH2; disulfide 1-7 (inferred))
platelet aggregation inhibition activity (in words) [1]: good platelet aggregation inhibition activity

[E^28L^41C^64]barbourin (28-73):E-C-A-D-G-L-C-C-D-O-CRFLKKGTVCRVAKGDWNDDTCTG-O-S-C-D-C-P-R-N-G-L-Y-G [Analog #1]
effect on cell adhesion / attachment to vitronectin (in words) (M21 melanoma cells): Neither barbourin nor Peptide 1 (truncated barbourin) had a significant effect | platelet aggregation inhibition activity (in words) [1]: potent inhibitors of platelet aggregation | affinity for VnR (vitronectin receptor): relative lack of affinity | affinity for GP IIb-IIIa (ability to inhibit the binding of fibrinogen to GP IIb-IIIa) (GP IIb-IIIa): high affinity

C[C@H](NC(=O)[C@@H]1CSSC[C@H](NC(=O)CN)C(=O)N[C@@H](CCCCN)C(=O)NCC(=O)N[C@@H](CC(=O)O)C(=O)N[C@@H](Cc2c[nH]c3ccccc23)C(=O)N1)C(N)=O [Analog #7] (H-GCKGDWCA-NH2; disulfide 2-7)
platelet aggregation inhibition activity (in words) [1]: excellent platelet aggregation inhibition activities | differential: inhibiting the binding of fibrinogen to GP IIb-IIIa as compared to vitronectin to vitronectin receptor (in words) (GP IIb-IIIa): quite specific

N=C(N)NCCCC[C@@H]1NC(=O)CCSSC[C@@H](C(N)=O)NC(=O)[C@@H]2CCCN2C(=O)[C@H](Cc2c[nH]c3ccccc23)NC(=O)[C@H](CC(=O)O)NC(=O)CNC1=O [Analog #60, Mpr-(Har)-G-D-W-P-C-NH2] ([Mpa][hArg]GDWPC-NH2; disulfide 1-7 (inferred))
effect on cell adhesion / attachment to vitronectin (in words) (M21 melanoma cells): relatively less effective | platelet aggregation inhibition activity (in words) [1]: efficient at vanishingly small concentrations

Mpr-Ala-(Har)-G-D-W-P-C-NH2
stability by HPLC ([2]; 5°C, 0 days): 99.6 | stability by HPLC ([2]; 5°C, 29 days): 98.1 | stability by HPLC ([2]; 5°C, 60 days): 98.3 | stability by HPLC ([2]; 5°C, 90 days): 97.3 | stability by HPLC ([2]; 30°C, 29 days): 97.3 | stability by HPLC ([2]; 30°C, 60 days): 97.3 | stability by HPLC ([2]; 30°C, 90 days): 96.5 | stability by HPLC ([2]; 45°C, 29 days): 95.4 | stability by HPLC ([2]; 45°C, 60 days): 92.6 | stability by HPLC ([2]; 45°C, 90 days): 90.6

Mpr-L-homoarginine-Gly-Asp-Trp-Pro-Cys-NH2 • acetate
stability of liquid solution (in words) ([3]; Example 1: 2 mg/ml in citrate buffer pH 5.00 and 5.50, about 4°C): very stable | stability of liquid solution (in words) ([3]; Example 1: 2 mg/ml in citrate buffer pH 5.00 and 5.50, up to about 50°C): still stable | stability of liquid solution (in words) ([3]; Example 1: citrate buffer pH 5.00 and 5.50, 70°C, in comparison to citrate buffer solutions at pH 6.0): much more stable

C[C@H](NC(=O)[C@@H]1CSSC[C@H](NC(=O)CN)C(=O)NCC(=O)N[C@@H](CCCNC(=N)N)C(=O)NCC(=O)N[C@@H](CC(=O)O)C(=O)N[C@@H](Cc2c[nH]c3ccccc23)C(=O)N2CCC[C@H]2C(=O)N1)C(N)=O [reference compound] (H-GCGRGDWPCA-NH2; disulfide 2-9)
effect on cell adhesion / attachment to vitronectin (in words) (M21 melanoma cells): potent inhibitors of cell attachment

C[C@H](NC(=O)[C@@H]1CSSC[C@H](NC(=O)CN)C(=O)N[C@@H](CCCCN)C(=O)NCC(=O)N[C@@H](CC(=O)O)C(=O)N[C@@H](Cc2c[nH]c3ccccc23)C(=O)N2CCC[C@H]2C(=O)N1)C(N)=O [Analog #4] (H-GCKGDWPCA-NH2; disulfide 2-8)
differential: inhibiting the binding of fibrinogen to GP IIb-IIIa as compared to vitronectin to vitronectin receptor (in words) (GP IIb-IIIa): highest differential

NCCCC[C@@H]1NC(=O)CNC(=O)[C@@H](N)CSSC[C@@H](C(N)=O)NC(=O)[C@@H]2CCCN2C(=O)[C@H](Cc2c[nH]c3ccccc23)NC(=O)[C@H](CC(=O)O)NC(=O)CNC1=O [Analog #5] (H-CGKGDWPC-NH2; disulfide 1-8)
platelet aggregation inhibition activity (in words) [1]: excellent platelet aggregation inhibition activities | differential: inhibiting the binding of fibrinogen to GP IIb-IIIa as compared to vitronectin to vitronectin receptor (in words) (GP IIb-IIIa): quite specific

Reference: patent publication EP0639202B1, “STABLE POLYPEPTIDE COMPOSITION” (COR THERAPEUTICS, INC., priority 1992, dated 1993)
